# Laboratory results taken from PubChem BioAssay (NCI).
# Values joined by “and” are separate entries in the source; they are usually repeats but may differ in a detail not shown here. Equal entries are not always repeated.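 Compound exposure: 48 hours, 5 concentrations, 96-well plates. Here, GI50 denotes the concentration required for 50% inhibition of growth. Definition used: TGI = concentration required for complete inhibition of growth.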
# What was measured:
# Assay in all cases: inhibition of tumour cell growth, NCI panel, 48 h
# MOLT-4 leukemia = tested on: MOLT-4 leukemia
# OVCAR-5 ovarian = tested on: OVCAR-5 ovarian
# U251 CNS = tested on: U251 CNS
# UACC-257 melanoma = tested on: UACC-257 melanoma
# MDA-MB-231 breast = tested on: MDA-MB-231 breast
# MDA-MB-435 = tested on: MDA-MB-435
# SNB-19 CNS = tested on: SNB-19 CNS
# HL-60(TB) leukemia = tested on: HL-60(TB) leukemia
# OVCAR-4 ovarian = tested on: OVCAR-4 ovarian
# 786-0 renal = tested on: 786-0 renal
SMILES,TGI (MOLT-4 leukemia) [µM],TGI (OVCAR-5 ovarian),TGI (U251 CNS),TGI (UACC-257 melanoma),TGI (MDA-MB-231 breast) [µM],TGI (MDA-MB-435) [µM],TGI (SNB-19 CNS),TGI (HL-60(TB) leukemia),TGI (OVCAR-4 ovarian),TGI (786-0 renal),GI50 (MOLT-4 leukemia),GI50 (U251 CNS),GI50 (OVCAR-4 ovarian),GI50 (786-0 renal),GI50 (OVCAR-5 ovarian) [µM],GI50 (UACC-257 melanoma) [µM],GI50 (MDA-MB-231 breast) [µM],GI50 (MDA-MB-435) [µM],GI50 (SNB-19 CNS) [µM],GI50 (HL-60(TB) leukemia)
O=C1c2ccccc2C(=O)c2c1ccc1c3ccccc3n(-c3ccccc3)c21,11.1,47 µM,> 100 µM,41.7 µM,77.7,26,> 100 µM,8.47 µM,33.5 µM,52.4 µM,,,,,,,,,,
COc1cc2c(cc1O)CCN[C@@]21CS[C@H]2c3c(OC(C)=O)c(C)c4c(c3C(COC1=O)N1C2C2NC(Cc3cc(C)c(OC)c(O)c32)[C@@H]1O)OCO4 (stereo not given in full),,14.6 µM and 7.3e-07 µg/mL and 0.0045 µg/mL,< 10 nM and 0.28 µg/mL,14.7 nM and 2.1e-07 µg/mL,< 0.01,< 0.01,11.4 µM,> 100 µM and 8.2e-07 µg/mL,< 10 nM and 0.0045 µg/mL,30.8 nM and 0.0045 µg/mL,4.5 ng/mL,4.5 ng/mL,4.5 ng/mL,4.5 ng/mL,,,,,,
CC[C@H](C)[C@H](NC(=O)CN(C)C)C(=O)N(C)[C@H](C[C@@H](OC(C)=O)c1nc(C(=O)NC23C4C5C2C2C3C4C52C(=O)OC)cs1)C(C)C (stereo not given in full),> 33.2,> 33.2 µM,> 33.2 µM,> 33.2 µM,4.62,1.07,> 33.2 µM,0.242 µM,> 33.2 µM,> 33.2 µM,0.252 µM,0.8 µM,2.81 µM,790 nM,> 10.4,4.31,0.352,0.0409,1.31,0.0777 µM
O=C(NCCN1CCOCC1)c1cc2c(Oc3ccc(NC(=O)C4(C(=O)Nc5ccc(F)cc5)CC4)cc3)ccnc2[nH]1,> 100,> 100 µM,34.5 µM,19.5 µM,30.7,23.3,> 100 µM,47 µM,> 100 µM,45.6 µM,3.48 µM,7.87 µM,5.13 µM,6740 nM,9.94,5.14,8.4,3.22,14.2,15.2 µM
COc1cccc(/C=C\C(=O)c2ccccc2)c1,> 100,41.2 µM,14.1 µM,33.3 µM,36.2,27.8,24.4 µM,> 100 µM,27 µM,34.2 µM,6.1 µM,2.77 µM,10.8 µM,15000 nM,9.84,17.7,17.1,11.9,7.68,5.98 µM
CC1OC(O[C@@H]2C=C3CC[C@@H]4[C@H](CC[C@]5(C)[C@@H](c6ccc(=O)oc6)CC[C@]45O)[C@@]3(C)CC2)C(O)C(O)C1O (stereo not given in full),0.00127,0.0115 µM and 0.0318 µM,,0.0197 µM and 0.04 µM,0.0136,0.013,0.0198 µM and 0.0319 µM,,0.00224 µM and 0.00365 µM,,,,,0.0706 nM,,,0.000383,0.000482,,0.0015 µM and 0.00592 µM
COC(=O)[C@]12CC[C@@H](C)[C@H](C)[C@@H]1C1=CC[C@@H]3[C@@]4(C)C[C@@H](OC(C)=O)[C@H](OC(C)=O)[C@@](C)(COC(C)=O)[C@@H]4[C@H](O)C[C@@]3(C)[C@]1(C)CC2,11.5,> 100 µM,> 100 µM,8.21 µM,> 100,> 100,> 100 µM,11.4 µM,> 100 µM,> 100 µM,0.901 µM,0.86 µM,3.21 µM,1800 nM,7.04,2.43,1.91,1.86,3.54,0.59 µM
N#Cc1ccc2c(-c3ccnc(NC4CC4)n3)c(-c3ccc(F)cc3)nn2c1,> 25,> 25 µM,> 25 µM,> 25 µM,> 25,> 25,> 25 µM,> 25 µM,> 25 µM,> 25 µM,> 25 µM,> 25 µM,> 25 µM,> 25000 nM,> 25,> 25,> 25,> 25,> 25,> 25 µM
Oc1ccccc1/C=N\NC(=S)Nc1ccc(F)cc1,> 31.1,> 100 µM,> 100 µM,> 65.3 µM,> 100,> 96.6,> 100 µM,6.22 µM,49.4 µM,> 100 µM,0.586 µM,0.639 µM,0.462 µM,3380 nM,4.63,2.68,1.74,0.404,2.32,0.906 µM
COc1ccc(/C(=C(\c2ccccc2)[N+](=O)[O-])c2ccc(OCCN3CCCC3)cc2)cc1,10.5,22.9 µM,12.6 µM,4.64 µM,6.98,10.5,18.6 µM,4.6 µM,16.7 µM,3.27 µM,2.65 µM,2.84 µM,4.66 µM,1640 nM,8.75,2.04,2.76,2.85,5.61,1.94 µM
O=C1c2ccc3c4c(ccc(c24)C(=O)N1CCCCO)C(=O)N(CCCCO)C3=O,12.5,4.06 µM,6.57 µM,2.71 µM,97.9,2.86,10.5 µM,7.43 µM,1.72 µM,20.5 µM,1.92 µM,2.14 µM,0.428 µM,2910 nM,1.57,1.3,2.9,1.46,2.34,2.07 µM
CC/C(=C/c1ccc(OC)cc1)[N+](=O)[O-],7.3,6.08 µM,10.5 µM,4.56 µM,4.9,3.6,7.93 µM,5.47 µM,12.1 µM,3.14 µM,2.7 µM,3.18 µM,3.15 µM,1700 nM,2.34,2.07,2.31,1.68,2.77,1.89 µM
N#Cc1cnn(C(=O)c2nn(-c3ccc(Cl)cc3)cc2O)c1N,4.06,21.6 µM,20.6 µM,10.6 µM,19.2,18.9,> 60.5 µM,2.27 µM,37.4 µM,16.3 µM,0.373 µM,0.284 µM,0.456 µM,658 nM,0.61,0.47,0.708,0.312,0.443,0.354 µM
C=C(CN1CCN(c2cc(C(F)(F)F)cc(C(F)(F)F)c2)CC1)c1ccc(C(=O)Nc2ccccc2N)cc1,,> 100 µM,> 100 µM,64.9 µM,17.9,4.88,> 100 µM,> 100 µM,9.9 µM,86.5 µM,,10.1 µM,2.53 µM,6770 nM,54.6,6.57,1.06,1.84,14,1.05 µM
O=C(/C=C/c1ccco1)Nc1ncc(Cc2cc(Cl)ccc2Cl)s1,> 100,> 100 µM,> 100 µM,> 100 µM,> 100,0.0449,> 100 µM,0.159 µM,> 100 µM,> 100 µM,0.061 µM,0.0426 µM,1.03 µM,69.9 nM,0.257,> 100,0.157,0.0191,0.0585,0.0482 µM
NP1(Oc2ccc(F)cc2)=NP(N)(Oc2ccc(F)cc2)=NP(Oc2ccc(F)cc2)(Oc2ccc(F)cc2)=N1 (stereo not given),10.5,23.7 µM,15.9 µM,24.7 µM,23.4,19.3,22.8 µM,22.3 µM,,22.9 µM,,,,,,,,,,
CCc1ccc([OH2+])c(C(=O)[O-])c1.CCc1ccc([OH2+])c(C(=O)[O-])c1.CCc1ccc([OH2+])c(C(=O)[O-])c1.CCc1ccc([OH2+])c(C(=O)[O-])c1.[Cu+2].[Cu+2],> 100,70.2 µM,> 100 µM,> 100 µM,> 100,> 100,> 61.8 µM,> 44.4 µM,> 100 µM,> 100 µM,34.2 µM,> 59.9 µM,28.3 µM,> 100000 nM,32.3,> 100,> 100,49.3,36.8,2.4 µM
C=C1C(=O)C23C(O)CC4C(C)(C)CCC(O)C4(C)C2CC(OC(C)=O)C1[C@H]3O (stereo not given in full),8.08,21.5 µM,22.8 µM,8.38 µM,14.6,21.4,30.9 µM,3.53 µM,,6.82 µM,,,,,,,,,,
